Laboratory results from patent US20130344008A1, “NONCARIOUS MATERIAL AND ANTICARIOUS AGENT CONTAINING RARE SUGAR” (priority 2006, published 2013).

Legend:
Format in all cases: cell-based, Streptococcus mutans
S. mutans strain JCM5075 = assay: Example 1: optical density and pH of S. mutans JCM5075 cultures in BHI broth with rare sugars, with or without sucrose; settings: for pH change 24 hours later (in words): 1% sucrose, or 10% Xylitol+1% sucrose, or 10% fructose+1% sucrose; for pH change 24 hours later (in words) / suppression of the pH reduction: FIG. 3; for pH 0 hour later / pH 6 hours later / pH 8 hours later / pH 12 hours later / pH 24 hours later / Optical density (OD) 12 hours later / suppression of OD increase compared with no addition: BHI broth; for Optical density (OD) 12 hours later: OD600; for suppression of the pH reduction: also with 1% sucrose addition; for suppression of OD increase compared with no addition: FIG. 2 / Table 1
Source text: S. mutans strains characteristically form insoluble glucan on addition of sucrose, to generate acids and reduce the pH of the culture medium, which is considered to cause decalcification of teeth on dental surface to form decayed teeth (the reason why the strains are designated bacteria causing decayed teeth). JCM 5075 of S. mutans strains and the Brain Heart Infusion (BHI) broth were used to assay the optical density (the increase of the number of the bacterial cells) and the pH change in individual rare sugar solutions with or without sucrose added. As the rare sugars, there were used D-fructose, L-fructose, D-sorbose, L-sorbose, D-psicose, L-psicose, D-tagatose and L-tagatose. The rare sugars used were supplied from the Rare Sugar Research Center, the National University Corporation Kagawa University.
The strain JCM5075 thawed from −80° C. stock was cultured for 48 hours, and was adjusted to OD 0.3. 100 μl of the resulting culture was added to each 2-ml portion of the BHI broths under individual conditions, to assay the optical density and the pH 24 hours later (observation with naked eyes and absorbance: OD600).
After collecting a part of the liquid culture and centrifuging the culture, the pH of the resulting supernatant was measured with a pH meter. The results are shown in Table 2 (0, 6, 8, 12 and 24 hours after the addition of the bacteria to the BHI broth) and FIG. 3.

[1] = test system: S. mutans strain (JCM5075); assay: Example 3: pH of S. mutans culture in BHI broth with test substance after 48-hour culturing; settings: 10% test substance, BHI broth, after 48-hour culturing
Procedure: Allitol and D-sorbose were used to assay the actions thereof against S. mutans. Allitol and D-sorbose were supplied from the Rare Sugar Research Center, the National University Corporation Kagawa University. The S. mutans strain (JCM5075) was plated in a Brain Heart Infusion broth containing a 10% test substance, to measure the pH of the liquid culture after 48-hour culturing. As a control, 1% sucrose and 10% Xylitol were used.

[2] = test system: S. mutans strain MT 8148 (JCM5175); assay: Example 2: bacterial growth (OD 660 nm) and pH of S. mutans culture in phenol red broth with 1% test substance; settings: PRB broth, 37° C., 48 hours later; for OD: bacterial growth, absorbance at 660 nm
Procedure: D-Psicose and L-psicose were used to assay the actions thereof against S. mutans. D-Psicose and L-psicose were supplied from the Rare Sugar Research Center, the National University Corporation Kagawa University. The S. mutans strain MT 8148 (JCM5175) was plated in a Brain Heart Infusion broth supplemented with agar for culturing at 37° C. for 48 hours. The liquid culture was inoculated in a fresh Brain Heart Infusion broth, for culturing at 37° C. for 24 hours. The liquid culture was inoculated in a phenol red broth (PRB broth) containing a test substance at 1%, for culturing at 37° C.; the bacterial growth (absorbance at 660 nm: OD) and the pH were assayed 48 hours later. Asa control, glucose, fructose, sucrose and Xylitol were used. After culturing for a given period of time, additionally, the optical density of apart of the liquid culture was measured with an absorptiometer (OD 660 nm).

[3] = 10% test substance + 1% sucrose

Structure (SMILES)	pH 0 hour later (S. mutans strain JCM5075; 5% test substance + 1% sucrose)	pH 6 hours later (S. mutans strain JCM5075; 5% test substance + 1% sucrose)	pH 8 hours later (S. mutans strain JCM5075; 5% test substance + 1% sucrose)	pH 12 hours later (S. mutans strain JCM5075; 5% test substance + 1% sucrose)	pH 24 hours later (S. mutans strain JCM5075; 5% test substance + 1% sucrose)	pH 0 hour later (S. mutans strain JCM5075; 5% test substance, no sucrose)	pH 6 hours later (S. mutans strain JCM5075; 5% test substance, no sucrose)	pH 8 hours later (S. mutans strain JCM5075; 5% test substance, no sucrose)	pH 12 hours later (S. mutans strain JCM5075; 5% test substance, no sucrose)	pH 24 hours later (S. mutans strain JCM5075; 5% test substance, no sucrose)	pH 0 hour later (S. mutans strain JCM5075; [3])	pH 6 hours later (S. mutans strain JCM5075; [3])	pH 8 hours later (S. mutans strain JCM5075; [3])	pH 12 hours later (S. mutans strain JCM5075; [3])	pH 24 hours later (S. mutans strain JCM5075; [3])	Optical density (OD) 12 hours later (S. mutans strain JCM5075; 10% test substance)	pH 0 hour later (S. mutans strain JCM5075; 10% test substance, no sucrose)	pH 6 hours later (S. mutans strain JCM5075; 10% test substance, no sucrose)	pH 8 hours later (S. mutans strain JCM5075; 10% test substance, no sucrose)	pH 12 hours later (S. mutans strain JCM5075; 10% test substance, no sucrose)	also measured
OC[C@@H](O)[C@H](O)[C@@H](O)CO [Xylitol, reference compound]	7.3	7.2	7.2	7.1	4.9	7.3	7.2	7.2	7.2	6.4	7.3	7.2	7.2	7.2	5.1	0.046	7.4	7.2	7.2	7.2	pH change 24 hours later (in words) (S. mutans strain JCM5075): highly inclined to acidity; pH 24 hours later (S. mutans strain JCM5075; 10% test substance, no sucrose): 6.5; pH [1]: 6.0
O=C(CO)[C@H](O)[C@H](O)[C@@H](O)CO [L-tagatose]	7.3	7.2	7.2	7.2	6.0	7.3	7.2	7.2	7.2	6.6	7.1	7.0	6.9	6.9	6.8	0.026	7.1	7.0	6.9	6.9	pH 24 hours later (S. mutans strain JCM5075; 10% test substance, no sucrose): 6.8; suppression of the pH reduction (S. mutans strain JCM5075; 24 hours later): pH reduction was suppressed; suppression of OD increase compared with no addition (S. mutans strain JCM5075): suppression of OD increase was observed
O=C(CO)[C@@H](O)[C@@H](O)[C@@H](O)CO [L-psicose]	7.3	7.2	7.2	7.2	6.2	7.3	7.2	7.2	7.2	6.8	7.2	7.1	7.0	7.0	6.9	0.067	7.2	7.1	7.0	7.0	pH 24 hours later (S. mutans strain JCM5075; 10% test substance, no sucrose): 6.9; suppression of the pH reduction (S. mutans strain JCM5075; 24 hours later): pH reduction was suppressed; suppression of OD increase compared with no addition (S. mutans strain JCM5075): suppression of OD increase was observed; pH [2]: 5.9; OD [2]: 0.02
O=C(CO)[C@@H](O)[C@H](O)[C@H](O)CO [D-fructose, reference compound]	7.4	7.2	7.2	7.2	5.0	7.4	7.2	7.2	7.2	4.7	7.3	7.2	7.2	7.2	5.1	0.114	7.3	7.2	7.2	7.2	pH change 24 hours later (in words) (S. mutans strain JCM5075): highly inclined to acidity; pH 24 hours later (S. mutans strain JCM5075; 10% test substance, no sucrose): 6.5; precipitation of bacterial masses (insoluble glucan) under observation with naked eyes (S. mutans strain JCM5075; addition of 1% sucrose, addition of 10% D-fructose, 24 hours later): caused the precipitation of bacterial masses (insoluble glucan)
O=C[C@H](O)[C@@H](O)[C@H](O)[C@H](O)CO [D-Glucose, reference compound]																					pH [2]: 3.9; OD [2]: 0.26
O=C(CO)[C@@H](O)[C@H](O)[C@@H](O)CO [L-sorbose]	7.4	7.2	7.2	7.2	5.3	7.4	7.2	7.2	7.2	5.9	7.3	7.2	7.2	7.2	6.4	0.463	7.3	7.2	7.2	7.2	pH 24 hours later (S. mutans strain JCM5075; 10% test substance, no sucrose): 7.1
O=C(CO)[C@@H](O)[C@@H](O)[C@H](O)CO [D-tagatose]	7.3	7.2	7.2	7.2	6.9	7.3	7.2	7.2	7.2	7.0	7.1	7.0	7.0	7.0	6.9	0.132	7.1	7.0	7.0	7.0	pH 24 hours later (S. mutans strain JCM5075; 10% test substance, no sucrose): 6.9; suppression of the pH reduction (S. mutans strain JCM5075; 24 hours later): pH reduction was suppressed; suppression of OD increase compared with no addition (S. mutans strain JCM5075): suppression of OD increase was observed
OC[C@@H](O)[C@@H](O)[C@@H](O)[C@@H](O)CO [Allitol]																					pH [1]: 5.6; pH ([1]; listed as allitol): ≥ 5.5
O=C(CO)[C@H](O)[C@@H](O)[C@@H](O)CO [L-fructose]	7.3	7.2	7.2	7.2	5.0	7.4	7.2	7.2	7.2	4.7	7.3	7.2	7.2	7.2	6.7	0.037	7.3	7.2	7.2	7.2	pH 24 hours later (S. mutans strain JCM5075; 10% test substance, no sucrose): 6.5; suppression of the pH reduction (S. mutans strain JCM5075; 24 hours later): pH reduction was suppressed; suppression of OD increase compared with no addition (S. mutans strain JCM5075): suppression of OD increase was observed; pH [2]: 4.0; OD [2]: 0.20
